# From the supplement of paper PMC11208160
# Assay: recombinant UMI read abundance after kanamycin selection (control-corrected) (log10(CPM+1)); higher = more efficient recombination; extreme values may be limits of the assay; sequences stand for … in AGTGCAGAGAAAATCGGCCAGTTTTCTCTGCCTGCAGTCCGCATGCCGTGGGACCCCTTGGGTTCTAACCTGTTGCCTAGATTTATGCAGCGGACTGCCTTTCTCCCAAAGTGATAAACCGG…AGGTTGGTTTCACT; site = the 11-nt donor
# Method in brief: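 In Escherichia coli, a pool of donor and donor-binding-loop pairs, each with a 12-nt UMI, was tested for the IS621 bridge recombinase. Plating was on IPTG (0.07 mM) plus kanamycin, or without selection, in two replicates. Recombinant UMIs were amplified by PCR across the donor–target junction and sequenced, and counts were reported as log10(CPM+1) after averaging and control-derived scaling.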
# 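Note: IS621 bridge recombinase in Escherichia coli cells against a fixed T5 target plasmid.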
row,Sequence,recombinant UMI read abundance (log10)
1,GATCTCTCATGGACCGGTTTTCCCGGTAATCCGTATTTGAT (site GATCTCTCTAT),0.578
2,GATGACACATGGACCGGTTTTCCCGGTAATCCGTATTTGTC (site GATGACACTGA),1.18
3,GATGACTCATGGACCGGTTTTCCCGGTAATCCGTATTTGGT (site GATGACTCTAC),2.49
4,GATGCAGCATGGACCGGTTTTCCCGGTAATCCGTATTTGTA (site GATGCAGCTTA),1.62
5,GATGCAGCATGGACCGGTTTTCCCGGTAATCCGTATTTGTT (site GATGCAGCTAA),0.749
6,GATGTACCATGGACCGGTTTTCCCGGTAATCCGTATTTGGC (site GATGTACCTGC),0.247
7,GATTACTCATGGACCGGTTTTCCCGGTAATCCGTATTTGTC (site GATTACTCTGA),1.09
8,GATTATCCATGGACCGGTTTTCCCGGTAATCCGTATTTGCC (site GATTATCCTAG),0
9,GATTATCCATGGACCGGTTTTCCCGGTAATCCGTATTTGCC (site GATTATCCTCG),0
10,GATTATCCATGGACCGGTTTTCCCGGTAATCCGTATTTGCC (site GATTATCCTGG),0
11,GATTATCCATGGACCGGTTTTCCCGGTAATCCGTATTTGCC (site GATTATCCTTG),0
12,GATTCATCATGGACCGGTTTTCCCGGTAATCCGTATTTGCG (site GATTCATCTCG),1.2
13,GATTCGGCATGGACCGGTTTTCCCGGTAATCCGTATTTGAC (site GATTCGGCTGT),0.484
14,GATTGCGCATGGACCGGTTTTCCCGGTAATCCGTATTTGCG (site GATTGCGCTCG),0.805
15,GATTGGACATGGACCGGTTTTCCCGGTAATCCGTATTTGAT (site GATTGGACTAT),0.838
16,GATTGGACATGGACCGGTTTTCCCGGTAATCCGTATTTGAT (site GATTGGACTCT),0.0264
17,GATTGGACATGGACCGGTTTTCCCGGTAATCCGTATTTGAT (site GATTGGACTGT),0
18,GATTGGACATGGACCGGTTTTCCCGGTAATCCGTATTTGAT (site GATTGGACTTT),0.0212
19,GATTGGACATGGACCGGTTTTCCCGGTAATCCGTATTTGCC (site GATTGGACTGA),0
20,GATTGGACATGGACCGGTTTTCCCGGTAATCCGTATTTGCC (site GATTGGACTGC),0
21,GATTGGACATGGACCGGTTTTCCCGGTAATCCGTATTTGCC (site GATTGGACTGG),2.68
22,GATTGGACATGGACCGGTTTTCCCGGTAATCCGTATTTGCC (site GATTGGACTGT),0
23,GATTGGACATGGACCGGTTTTCCCGGTAATCCGTATTTGTC (site GATTGGACTGA),0.657

row,Sequence,recombinant UMI read abundance (log10)
1,GATTGGACATGGACCGGTTTTCCCGGTAATCCGTATTTGTC (site GATTGGACTGC),0
2,GATTGGACATGGACCGGTTTTCCCGGTAATCCGTATTTGTC (site GATTGGACTGG),0.913
3,GATTGGACATGGACCGGTTTTCCCGGTAATCCGTATTTGTC (site GATTGGACTGT),0.172
4,GATTTATCATGGACCGGTTTTCCCGGTAATCCGTATTTGTC (site GATTTATCTGA),0.525
5,GATTTCGCATGGACCGGTTTTCCCGGTAATCCGTATTTGGG (site GATTTCGCTCC),0.00434
6,GCAAACGCATGGACCGGTTTTCCCGGTAATCCGTATTTGTG (site GCAAACGCTCA),1.98
7,GCAACTACATGGACCGGTTTTCCCGGTAATCCGTATTTGTG (site GCAACTACTCA),1.17
8,GCAAGTGCATGGACCGGTTTTCCCGGTAATCCGTATTTGTC (site GCAAGTGCTGA),0
9,GCAATATCATGGACCGGTTTTCCCGGTAATCCGTATTTGCA (site ACAGTATCTTG),1.37
10,GCAATATCATGGACCGGTTTTCCCGGTAATCCGTATTTGCA (site GCAATATCTTG),1.75
11,GCAATTCCATGGACCGGTTTTCCCGGTAATCCGTATTTGAG (site GCAATTCCTCT),0.651
12,GCAATTGCATGGACCGGTTTTCCCGGTAATCCGTATTTGCC (site GCAATTGCTGG),0
13,GCAATTTCATGGACCGGTTTTCCCGGTAATCCGTATTTGTA (site GCAATTTCTTA),2.26
14,GCACATGCATGGACCGGTTTTCCCGGTAATCCGTATTTGGA (site GCACATGCTTC),1.05
15,GCACCTTCATGGACCGGTTTTCCCGGTAATCCGTATTTGTT (site GCACCTTCTAA),1.09
16,GCACGATCATGGACCGGTTTTCCCGGTAATCCGTATTTGTA (site GCACGATCTTA),2.74
17,GCACTGCCATGGACCGGTTTTCCCGGTAATCCGTATTTGCT (site GCACTGCCTAG),1.41
18,GCACTTCCATGGACCGGTTTTCCCGGTAATCCGTATTTGTT (site GCACTTCCTAA),0.561
19,GCAGAAACATGGACCGGTTTTCCCGGTAATCCGTATTTGGC (site GCAGAAACTGC),2.87
20,GCAGTAGCATGGACCGGTTTTCCCGGTAATCCGTATTTGCC (site GCAGTAGCTGG),0.831
21,GCAGTGGCATGGACCGGTTTTCCCGGTAATCCGTATTTGGT (site GAAGTGGCTAC),0.0767
22,GCAGTGGCATGGACCGGTTTTCCCGGTAATCCGTATTTGGT (site GCAGTGGCTAC),0.668
23,GCAGTGGCATGGACCGGTTTTCCCGGTAATCCGTATTTGGT (site GGAGTGGCTAC),0.276

row,Sequence,recombinant UMI read abundance (log10)
1,GCAGTGGCATGGACCGGTTTTCCCGGTAATCCGTATTTGGT (site GTAGTGGCTAC),0.0239
2,GCATACCCATGGACCGGTTTTCCCGGTAATCCGTATTTGAC (site GCATACCCTGT),1.04
3,GCATCAGCATGGACCGGTTTTCCCGGTAATCCGTATTTGTG (site GCATCAGCTCA),1.49
4,GCATGGGCATGGACCGGTTTTCCCGGTAATCCGTATTTGAG (site GCATGGGCTCT),1.33
5,GCATTATCATGGACCGGTTTTCCCGGTAATCCGTATTTGGC (site GCATTATCTGC),2.82
6,GCCAAGCCATGGACCGGTTTTCCCGGTAATCCGTATTTGTA (site GCCAAGCCTTA),1.69
7,GCCAAGCCATGGACCGGTTTTCCCGGTAATCCGTATTTGTA (site GCCACGCCTTA),0.00534
8,GCCAAGCCATGGACCGGTTTTCCCGGTAATCCGTATTTGTA (site GCCAGGCCTTA),0.00969
9,GCCAAGCCATGGACCGGTTTTCCCGGTAATCCGTATTTGTA (site GCCATGCCTTA),0.00407
10,GCCACGACATGGACCGGTTTTCCCGGTAATCCGTATTTGTA (site GCCACGACTTA),2.11
11,GCCACGACATGGACCGGTTTTCCCGGTAATCCGTATTTGTA (site GCCACGCCTTA),0.00858
12,GCCACGACATGGACCGGTTTTCCCGGTAATCCGTATTTGTA (site GCCACGGCTTA),0.423
13,GCCACGACATGGACCGGTTTTCCCGGTAATCCGTATTTGTA (site GCCACGTCTTA),0.283
14,GCCAGGACATGGACCGGTTTTCCCGGTAATCCGTATTTGTT (site GCCAGGACTAA),1.71
15,GCCAGGCCATGGACCGGTTTTCCCGGTAATCCGTATTTGTA (site GCCAAGCCTTA),0.198
16,GCCAGGCCATGGACCGGTTTTCCCGGTAATCCGTATTTGTA (site GCCACGCCTTA),0.00645
17,GCCAGGCCATGGACCGGTTTTCCCGGTAATCCGTATTTGTA (site GCCAGGCCTTA),0.112
18,GCCAGGCCATGGACCGGTTTTCCCGGTAATCCGTATTTGTA (site GCCATGCCTTA),0.00384
19,GCCATATCATGGACCGGTTTTCCCGGTAATCCGTATTTGTC (site ACCATATCTGA),1.74
20,GCCATATCATGGACCGGTTTTCCCGGTAATCCGTATTTGTC (site CCCATATCTGA),0.61
21,GCCATATCATGGACCGGTTTTCCCGGTAATCCGTATTTGTC (site GCCATATCTGA),1.87
22,GCCATATCATGGACCGGTTTTCCCGGTAATCCGTATTTGTC (site TCCATATCTGA),1.87
